Like-named read-outs stand apart in the source and are kept apart here.
Columns and labels:
Type in all cases: in vivo
[1] = system: Cabbage Looper (Trichoplusia ni, TRIPNI); test: Bioassay on Cabbage Looper (CL), 128-well diet tray assay; settings: Trichoplusia ni
How it was run: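 Percent mortality, averaged across eight replicate wells, was scored after five to seven days at 25° C. under a 14:10 light-dark cycle. Each well held one to five second instar larvae on artificial diet treated at 50 μg/cm^2 with compound from 90:10 acetone-water, allowed to dry before infestation.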

[2] = system: Green Peach Aphid (Myzus persicae, MYZUPE); test: Bioassay on Green Peach Aphid (GPA), foliar spray on infested cabbage seedlings; settings: 72 h
Protocol: Certain molecules disclosed in this document were tested against GPA using procedures described in the following example. In the reporting of the results, the “GPA & YFM Rating Table” was used (See Table Section).
Cabbage seedlings grown in 3-inch pots, with 2-3 small (3-5 cm) true leaves, were used as test substrate. The seedlings were infested with 20-50 GPA (wingless adult and nymph stages) one day prior to chemical application. Four pots with individual seedlings were used for each treatment. Test molecules (2 mg) were dissolved in 2 mL of acetone/methanol (1:1) solvent, forming stock solutions of 1000 ppm test molecule. The stock solutions were diluted 5× with 0.025% Tween 20 in water to obtain the solution at 200 ppm test molecule. A hand-held aspirator-type sprayer was used for spraying a solution to both sides of […] leaves until runoff. Reference plants (solvent check) were sprayed with the diluent only containing 20% by volume of acetone/methanol (1:1) solvent. Treated plants were held in a holding room for three days at approximately 25° C. and ambient relative humidity (RH) prior to grading. Evaluation was conducted by counting the number of live aphids per plant under a microscope. Percent control was measured using Abbott's correction formula (W. S. Abbott, “A Method of Computing the Effectiveness of an Insecticide” 3. Econ. Entomol. 18 (1925), pp. 265-267) as follows. Corrected % Control=100*(X−Y)/X where X=No. of live aphids on solvent check plants and Y=No. of live aphids on treated plants. The results are indicated in the table entitled “Table ABC: Biological Results” (See Table Section).

[3] = system: Beet Armyworm (Spodoptera exigua, LAPHEG); test: Bioassay on Beet Armyworm (BAW), 128-well diet tray assay
How it was run: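 Second instar larvae were exposed to diet treated at 50 μg/cm^2 for five to seven days at 25° C.; mortality was averaged over eight wells.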

[4] = system: Yellow Fever Mosquito (Aedes aegypti, AEDSAE); test: Bioassay on Yellow Fever Mosquito (YFM), 96-well plate larval assay; settings: Yellow Fever Mosquito, 96-well plate larval assay
How it was run: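 Compound stocks at 4000 ppm in DMSO were diluted with 90:10 water/acetone, and 15 μL aliquots were dispensed into six replicate plates. About 1-day-old larvae in liver-powder water were added per well. Plates were covered and held at room temperature for 3 days before each well was scored for mortality.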

[5] = Species CL (Cabbage Looper), read-out: CL (Biological Results, rating)
[6] = foliar, Species GPA (Green Peach Aphid), read-out: GPA (Biological Results, rating)
[7] = Species BAW (Beet Armyworm), read-out: BAW (Biological Results, rating)
[8] = Cabbage Looper, 128-well diet tray assay, read-out: CL rating
[9] = Beet Armyworm, 128-well diet tray assay, read-out: BAW rating

## O=C(Nc1ccc(Cl)cc1)c1cc(NC(=O)[C@H]2[C@H](c3cc(Cl)cc(Cl)c3)C2(Cl)Cl)ccc1Cl (relative stereo) [F7, trans-2-Chloro-N-(4-chlorophenyl)-5-(2,2-dichloro-3-(3,5-dichlorophenyl)cyclopropane-1-carboxamido)benzamide]
[1]; [5]
  pest or weed control at 50 µg/cm2: 50 to 100%
[2]; [6]
  pest or weed control at 200 µg/mL: 0 to 80%
[3]; [7]
  pest or weed control at 50 µg/cm2: 50 to 100%

## O=C(Nc1ccc(F)cc1Cl)c1cc(NC(=O)[C@H]2[C@H](c3cc(Cl)cc(Cl)c3)C2(Cl)Cl)ccc1Cl (relative stereo) [F8, trans-2-Chloro-N-(2-chloro-4-fluorophenyl)-5-(2,2-dichloro-3-(3,5-dichlorophenyl)cyclopropane-1-carboxamido)benzamide]
[1]; [5]
  pest or weed control at 50 µg/cm2: 50 to 100%
[2]; [6]
  pest or weed control at 200 µg/mL: 80 to 100%
[3]; [7]
  pest or weed control at 50 µg/cm2: 50 to 100%

## O=C(Nc1ccc(F)cc1)c1cc(NC(=O)[C@H]2[C@H](c3cc(Cl)cc(Cl)c3)C2(Cl)Cl)ccc1Br (relative stereo) [F11, trans-2-Bromo-5-(2,2-dichloro-3-(3,5-dichlorophenyl)cyclopropane-1-carboxamido)-N-(4-fluorophenyl)benzamide]
[1]; [5]
  pest or weed control at 50 µg/cm2: 50 to 100%
[2]; [6]
  pest or weed control at 200 µg/mL: 0 to 80%
[3]; [7]
  pest or weed control at 50 µg/cm2: 50 to 100%

## CN(C(=O)c1cc(NC(=O)[C@H]2[C@H](c3cc(Cl)cc(Cl)c3)C2(Cl)Cl)ccc1F)c1ccc(F)cc1 (relative stereo) [F45, trans-5-(2,2-Dichloro-3-(3,5-dichlorophenyl)cyclopropane-1-carboxamido)-2-fluoro-N-(4-fluorophenyl)-N-methylbenzamide]
[1]; [5]
  pest or weed control at 50 µg/cm2: 50 to 100%
[2]; [6]
  pest or weed control at 200 µg/mL: 0 to 80%
[3]; [7]
  pest or weed control at 50 µg/cm2: 50 to 100%

## O=C(Nc1ccc(F)cc1)c1cc(NC(=O)[C@H]2[C@H](c3cc(Cl)cc(Cl)c3)C2(Cl)Cl)c(F)cc1F (relative stereo) [F49, trans-5-(2,2-Dichloro-3-(3,5-dichlorophenyl)cyclopropane-1-carboxamido)-2,4-difluoro-N-(4-fluorophenyl)benzamide]
[1]; [5]
  pest or weed control at 50 µg/cm2: 50 to 100%
[2]; [6]
  pest or weed control at 200 µg/mL: 0 to 80%
[3]; [7]
  pest or weed control at 50 µg/cm2: 50 to 100%

## O=C(Nc1ccc(F)cc1)c1cc(NC(=O)[C@H]2[C@H](c3cc(Cl)c(F)c(Cl)c3)C2(Cl)Cl)ccc1Cl (relative stereo) [F96, trans-2-Chloro-5-(2,2-dichloro-3-(3,5-dichloro-4-fluorophenyl)cyclopropane-1-carboxamido)-N-(4-fluorophenyl)benzamide]
[1]; [5]
  pest or weed control at 50 µg/cm2: 50 to 100%
[2]; [6]
  pest or weed control at 200 µg/mL: 80 to 100%
[3]; [7]
  pest or weed control at 50 µg/cm2: 50 to 100%

## Cc1cc(Cl)cc([C@H]2[C@H](C(=O)Nc3ccc(Cl)c(C(=O)N(C)c4ccc(F)cc4)c3)C2(Cl)Cl)c1 (relative stereo) [F117, trans-2-Chloro-5-(2,2-dichloro-3-(3-chloro-5-methylphenyl)cyclopropane-1-carboxamido)-N-(4-fluorophenyl)-N-methylbenzamide]
[1]; [5]
  pest or weed control at 50 µg/cm2: 50 to 100%
[2]; [6]
  pest or weed control at 200 µg/mL: 0 to 80%
[3]; [7]
  pest or weed control at 50 µg/cm2: 50 to 100%

## CC(C)(C)OC(=O)Nc1cc(C(F)(F)F)cc(NC(=O)c2cc(NC(=O)[C@H]3[C@H](c4cc(Cl)cc(Cl)c4)C3(Cl)Cl)ccc2Cl)n1 (relative stereo) [F507, tert-Butyl (6-(2-chloro-5-(trans-2,2-dichloro-3-(3,5-dichlorophenyl)cyclopropane-1-carboxamido)benzamido)-4-(trifluoromethyl)pyridin-2-yl)carbamate]
[2]; Green Peach Aphid, foliar spray on cabbage seedlings, read-out: GPA rating
  pest or weed control at 200 µg/mL: 0 to 80%

## O=C(Nc1ccc(Cl)cc1F)c1cc(NC(=O)C2C(c3cc(Cl)cc(Cl)c3)C2(Cl)Cl)ccc1Cl (stereo not drawn) [PF116, 2-Chloro-N-(4-chloro-2-fluorophenyl)-5-(trans)-2,2-dichloro-3-(3,5-dichlorophenyl)cyclopropane-1-carboxamido)benzamide]
[1]; [8]
  pest or weed control at 50 µg/cm2: 50 to 100%
[3]; [9]
  pest or weed control at 50 µg/cm2: 50 to 100%
[4]
  YFM rating: B (More than 0-Less than 80)

## O=C(Nc1ccc(Cl)c(Cl)c1)c1cc(NC(=O)C2C(c3cc(Cl)cc(Cl)c3)C2(Cl)Cl)ccc1Cl (stereo not drawn) [PF117, 2-Chloro-5-(trans)-2,2-dichloro-3-(3,5-dichlorophenyl)cyclopropane-1-carboxamido)-N-(3,4-dichlorophenyl)benzamide]
[1]; [8]
  pest or weed control at 50 µg/cm2: 50 to 100%
[3]; [9]
  pest or weed control at 50 µg/cm2: 50 to 100%
[4]
  YFM rating: A (80-100)

## O=C(Nc1cc(F)ccc1F)c1cc(NC(=O)C2C(c3cc(Cl)cc(Cl)c3)C2(Cl)Cl)ccc1Cl (stereo not drawn) [PF118, 2-Chloro-5-(trans)-2,2-dichloro-3-(3,5-dichlorophenyl)cyclopropane-1-carboxamido)-N-(2,5-difluorophenyl)benzamide]
[1]; [8]
  pest or weed control at 50 µg/cm2: 50 to 100%
[3]; [9]
  pest or weed control at 50 µg/cm2: 50 to 100%
[4]
  YFM rating: B (More than 0-Less than 80)

## O=C(Nc1ccc(F)c(Cl)c1)c1cc(NC(=O)C2C(c3cc(Cl)cc(Cl)c3)C2(Cl)Cl)ccc1Cl (stereo not drawn) [PF122, 2-Chloro-N-(3-chloro-4-fluorophenyl)-5-(trans)-2,2-dichloro-3-(3,5-dichlorophenyl)cyclopropane-1-carboxamido)benzamide]
[1]; [8]
  pest or weed control at 50 µg/cm2: 50 to 100%
[3]; [9]
  pest or weed control at 50 µg/cm2: 50 to 100%
[4]
  YFM rating: B (More than 0-Less than 80)

## O=C(Nc1ccc(Cl)c(F)c1)c1cc(NC(=O)C2C(c3cc(Cl)cc(Cl)c3)C2(Cl)Cl)ccc1Cl (stereo not drawn) [PF123, 2-Chloro-N-(4-chloro-3-fluorophenyl)-5-(trans)-2,2-dichloro-3-(3,5-dichlorophenyl)cyclopropane-1-carboxamido)benzamide]
[1]; [8]
  pest or weed control at 50 µg/cm2: 50 to 100%
[3]; [9]
  pest or weed control at 50 µg/cm2: 50 to 100%
[4]
  YFM rating: A (80-100)

## C#Cc1cccc(NC(=O)c2cc(NC(=O)C3C(c4cc(Cl)cc(Cl)c4)C3(Cl)Cl)ccc2Cl)c1 (stereo not drawn) [PF124, 2-Chloro-5-(trans)-2,2-dichloro-3-(3,5-dichlorophenyl)cyclopropane-1-carboxamido)-N-(3-ethynylphenyl)benzamide]
[1]; [8]
  pest or weed control at 50 µg/cm2: 50 to 100%
[3]; [9]
  pest or weed control at 50 µg/cm2: 50 to 100%
[4]
  YFM rating: A (80-100)

## Cc1ccc(NC(=O)c2cc(NC(=O)C3C(c4cc(Cl)cc(Cl)c4)C3(Cl)Cl)ccc2Cl)cc1Cl (stereo not drawn) [PF125, 2-Chloro-N-(3-chloro-4-methylphenyl)-5-(trans)-2,2-dichloro-3-(3,5-dichlorophenyl)cyclopropane-1-carboxamido)benzamide]
[1]; [8]
  pest or weed control at 50 µg/cm2: 50 to 100%
[3]; [9]
  pest or weed control at 50 µg/cm2: 50 to 100%
[4]
  YFM rating: A (80-100)

## O=C(Nc1ccc2cc[nH]c2c1)c1cc(NC(=O)C2C(c3cc(Cl)cc(Cl)c3)C2(Cl)Cl)ccc1Cl (stereo not drawn) [PF126, 2-Chloro-5-(trans)-2,2-dichloro-3-(3,5-dichlorophenyl)cyclopropane-1-carboxamido)-N-(1H-indol-6-yl)benzamide]
[1]; [8]
  pest or weed control at 50 µg/cm2: 50 to 100%
[3]; [9]
  pest or weed control at 50 µg/cm2: 50 to 100%
[4]
  YFM rating: A (80-100)

## O=C(Nc1ccc(Cl)c(Cl)c1F)c1cc(NC(=O)C2C(c3cc(Cl)cc(Cl)c3)C2(Cl)Cl)ccc1Cl (stereo not drawn) [PF127, 2-Chloro-N-(3,4-dichloro-2-fluorophenyl)-5-(trans)-2,2-dichloro-3-(3,5-dichlorophenyl)cyclopropane-1-carboxamido)benzamide]
[1]; [8]
  pest or weed control at 50 µg/cm2: 50 to 100%
[3]; [9]
  pest or weed control at 50 µg/cm2: 50 to 100%
[4]
  YFM rating: A (80-100)

## O=C(Nc1nnc(Br)s1)c1cc(NC(=O)C2C(c3cc(Cl)cc(Cl)c3)C2(Cl)Cl)ccc1Cl (stereo not drawn) [PF133, trans-N-(5-bromo-1,3,4-thiadiazol-2-yl-2-chloro-5-(2,2-dichloro-3-(3,5-dichlorophenyl)cyclopropane-1-carboxamido)benzamide]
[1]; [8]
  pest or weed control at 50 µg/cm2: 50 to 100%
[3]; [9]
  pest or weed control at 50 µg/cm2: 50 to 100%
[4]
  YFM rating: A (80-100)

## N#Cc1cc(Cl)cc(C2C(C(=O)Nc3ccc(Cl)c(C(=O)Nc4ccc(F)cc4)c3)C2(Cl)Cl)c1 (stereo not drawn) [PF155, 2-Chloro-5-(trans)-2,2-dichloro-3-(3-chloro-5-cyanophenyl)cyclopropane-1-carboxamido)-N-(4-fluorophenyl)benzamide]
[1]; [8]
  pest or weed control at 50 µg/cm2: 50 to 100%
[3]; [9]
  pest or weed control at 50 µg/cm2: 50 to 100%
[4]
  YFM rating: B (More than 0-Less than 80)

— patent US10219516B2, “Molecules having pesticidal utility, and intermediates, compositions, and processes, related thereto” (priority 2015, dated 2019)
